Experiment [1] deals with T1, human A2b receptor subtype (Homo sapiens, UniProt P29275).
T1 construct: purchased Receptor Biology (Beltsville, Md.) RB-HA2b; host or cells: HEK-293, stably expressing
T1 sequence (P29275 1-332): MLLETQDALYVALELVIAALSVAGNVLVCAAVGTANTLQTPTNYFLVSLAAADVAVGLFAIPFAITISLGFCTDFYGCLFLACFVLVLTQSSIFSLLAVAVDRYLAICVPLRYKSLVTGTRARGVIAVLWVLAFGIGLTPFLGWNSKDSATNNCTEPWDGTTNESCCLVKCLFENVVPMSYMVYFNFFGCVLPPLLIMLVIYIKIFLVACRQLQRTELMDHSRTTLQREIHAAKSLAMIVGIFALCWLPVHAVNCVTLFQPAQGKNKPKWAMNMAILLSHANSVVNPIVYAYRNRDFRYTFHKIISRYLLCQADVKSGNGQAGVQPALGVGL
Briefly: Adenosine 2b receptor subtype competition radioligand binding, [3H]DPCPX, HEK293 membranes.

Experiment [2] addresses T2, human A3 receptor subtype (Homo sapiens, UniProt P0DMS8).
T2 construct: purchased Receptor Biology (Beltsville, Md.) RB-HA3; host or cells: HEK-293, stably expressing
T2 sequence (P0DMS8 1-318): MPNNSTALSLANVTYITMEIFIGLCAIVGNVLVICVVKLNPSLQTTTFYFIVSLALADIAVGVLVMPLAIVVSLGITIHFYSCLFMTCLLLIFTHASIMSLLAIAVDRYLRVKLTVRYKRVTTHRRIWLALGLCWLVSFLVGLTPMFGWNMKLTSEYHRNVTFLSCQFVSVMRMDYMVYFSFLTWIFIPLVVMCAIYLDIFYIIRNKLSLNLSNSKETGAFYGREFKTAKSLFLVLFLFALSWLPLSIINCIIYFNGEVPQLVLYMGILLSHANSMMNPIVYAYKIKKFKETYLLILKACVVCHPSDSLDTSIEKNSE
Briefly: Adenosine 3 receptor competition radioligand binding, [125I]AB-MECA, HEK293 membranes.

The target in experiment [3] is T3, human A1 receptor subtype (Homo sapiens, UniProt P30542).
T3 sequence (P30542 1-326): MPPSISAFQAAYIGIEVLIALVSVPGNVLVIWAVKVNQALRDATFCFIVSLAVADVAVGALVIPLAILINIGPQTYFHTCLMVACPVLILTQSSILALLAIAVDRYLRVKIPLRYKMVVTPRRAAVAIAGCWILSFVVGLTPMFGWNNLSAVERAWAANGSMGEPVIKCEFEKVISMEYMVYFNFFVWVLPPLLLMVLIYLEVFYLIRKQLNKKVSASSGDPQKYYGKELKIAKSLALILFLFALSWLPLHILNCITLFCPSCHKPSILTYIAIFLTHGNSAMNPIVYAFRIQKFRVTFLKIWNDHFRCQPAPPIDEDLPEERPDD
As to the kind of experiment: biochemical.

Experiment [4] deals with T4, human A2a receptor subtype (Homo sapiens, UniProt P29274).
T4 construct: purchased Receptor Biology (Beltsville, Md.) RB-HA2a; host or cells: HEK-293, stably expressing
Briefly: Adenosine 2a receptor subtype competition radioligand binding, [3H]CGS-21680, HEK293 membranes.

Experiment [5] relates to PDE4 (Human). Briefly: PDE4 inhibition. The format is biochemical.
For experiment [6], the target named is T5, hA3R (Homo sapiens, UniProt P0DMS8).
T5 sequence (P0DMS8 1-318): T2 sequence (P0DMS8 1-318)
Briefly: Displacement binding of [3H]CPX, yeast membranes expressing human A3 receptor. Conditions: read-out: IC50 [nM] hA3R, 0.4 nM [3H]CPX.

The target in experiment [7] is T3, human A1 receptor subtype. Particulars: for Ki: read-out: A1 Binding Ki, Tables 7-13, deazapurine analogues.

Read-outs that look alike come from different tables or passages of the source.

T4 sequence (P29274 whole entry): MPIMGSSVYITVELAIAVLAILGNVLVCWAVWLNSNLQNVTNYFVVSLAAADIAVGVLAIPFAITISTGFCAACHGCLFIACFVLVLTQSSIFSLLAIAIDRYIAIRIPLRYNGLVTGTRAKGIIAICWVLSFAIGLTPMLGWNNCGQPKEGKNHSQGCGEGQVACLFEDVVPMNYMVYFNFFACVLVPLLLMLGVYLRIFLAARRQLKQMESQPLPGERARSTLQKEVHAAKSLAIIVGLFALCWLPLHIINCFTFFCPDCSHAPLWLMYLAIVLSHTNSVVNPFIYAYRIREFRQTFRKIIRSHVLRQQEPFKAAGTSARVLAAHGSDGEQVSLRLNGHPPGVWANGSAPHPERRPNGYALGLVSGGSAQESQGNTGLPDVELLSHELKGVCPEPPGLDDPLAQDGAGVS

`O[C@H]1CC[C@H](Nc2nc(-c3ccccc3)nc3[nH]ncc23)CC1`: the Ki – broadly, a dissociation constant, usually derived from enzyme kinetics or from competition with a known ligand – in experiment [1] (Table 6, read-out: Ki − A2B) was determined as 1460 nM; in experiment [2] (Table 6, read-out: Ki − A3), 664 nM; in experiment [3], 4.4 nM; in experiment [4] (Table 6, read-out: Ki − A2A), 432 nM. Besides, the “PDE4 (Human) Inhibition at 10 μM” value in experiment [5] came out at 89%.

For `O[C@H]1CC[C@H](Nc2nc(-c3ccccc3)nc3[nH]nnc23)CC1`, the Ki in experiment [1] (Table 6, read-out: Ki − A2B) is 4210 nM; in experiment [3], 52.4 nM; in experiment [4] (Table 6, read-out: Ki − A2A), 1530 nM.

Regarding `NC(=O)[C@@H]1CCCN1c1nc(-c2ccccc2)nc2[nH]cnc12`, the Ki in experiment [1] (Table 6, read-out: Ki − A2B) amounted to 63.1 nM; in experiment [3], 0.9 nM; in experiment [4] (Table 6, read-out: Ki − A2A), 19.1 nM.

For the compound `NC(=O)[C@H]1CCCN1c1nc(-c2ccccc2)nc2[nH]cnc12`, the Ki was 168 nM in experiment [1] (Table 6, read-out: Ki − A2B); 12.3 nM in experiment [3]; 21.1 nM in experiment [4] (Table 6, read-out: Ki − A2A).

For the compound `NC(=O)[C@@H]1CCCN1c1nc(-c2ccccc2)nc2[nH]ncc12`, the Ki in experiment [1] (Table 6, read-out: Ki − A2B) turned out to be 97.4 nM; in experiment [2] (Table 6, read-out: Ki − A3), 261 nM; in experiment [3], 0.6 nM; in experiment [4] (Table 6, read-out: Ki − A2A) it was 66.8 nM. In experiment [5], the “PDE4 (Human) Inhibition at 10 μM” value stood at 34%.

Take `NC(=O)[C@H]1CCCN1c1nc(-c2ccccc2)nc2[nH]ncc12`: the Ki in experiment [1] (Table 6, read-out: Ki − A2B) worked out at 1480 nM; in experiment [3] it was 76.7 nM; in experiment [4] (Table 6, read-out: Ki − A2A), 243 nM.

Regarding `O[C@H]1CC[C@H](Nc2nc(-c3ccccc3)nc3[nH]cnc23)CC1`, the Ki in experiment [1] (Table 6, read-out: Ki − A2B) is 69.3 nM; in experiment [2] (Table 6, read-out: Ki − A3) it was 174 nM; in experiment [3], 1.5 nM; in experiment [4] (Table 6, read-out: Ki − A2A), 96.8 nM. Also, the “PDE4 (Human) Inhibition at 10 μM” value in experiment [5] turned out to be 79%.

As to `NC(=O)[C@@H]1CCCN1c1nc(-c2ccccc2)nc2[nH]nnc12`, the Ki in experiment [1] (Table 6, read-out: Ki − A2B) was determined as 5560 nM; in experiment [3] it was 81.3 nM; in experiment [4] (Table 6, read-out: Ki − A2A), 5540 nM.

For the compound `CC(=O)NCCNc1nc(-c2ccccc2)nc2[nH]cnc12`, the Ki in experiment [1] (Table 6, read-out: Ki − A2B) was determined as 22 nM; in experiment [3], 7.4 nM; in experiment [4] (Table 6, read-out: Ki − A2A) it was 24.8 nM.

Regarding `CC(=O)NCCNc1nc(-c2ccccc2)nc2[nH]ncc12`, the Ki in experiment [1] (Table 6, read-out: Ki − A2B) was found to be 32.1 nM; in experiment [3], 11.4 nM; in experiment [4] (Table 6, read-out: Ki − A2A), 49.5 nM.

As to `O=c1nc2[nH]c3ccccc3nc-2c(=O)[nH]1` [Alloxazine], the IC50 – broadly, the concentration needed to halve the response being measured – in experiment [6] is 8220 nM.

Regarding `Cc1[nH]c2nc(-c3ccccc3)nc(NC3CCC(OC(=O)c4ccccc4)CC3)c2c1C` (stereo not drawn) [Compound 606], the inhibition constant Ki in experiment [7] was 298 nM.

On to `Cc1[nH]c2nc(-c3ccccc3)nc(NC3CCC(OC(=O)c4ccccc4)CC3)c2c1C` (stereo not drawn) [Compound 611], for which the Ki in experiment [7] was 786 nM.

In the case of `CC(=O)NCCNc1nc(-c2ccccc2)nc2[nH]c(C)c(C)c12` [Compound 1300], the Ki in experiment [4] lay in the range of 18 to 48.6 nM.

`Cc1[nH]c2nc(-c3ccccc3)nc(N[C@H]3CC[C@H](O)CC3)c2c1C` [Compound 1304]: the Ki in experiment [1] (Table 14, read-out: Binding Ki (nM) A2b) was found to be 138 nM; in experiment [2] (Table 14, read-out: Binding Ki (nM) A3) it was 21.5 nM.

Regarding `CNC(=O)NCCCNc1nc(-c2ccccc2)nc2[nH]c(C)c(C)c12` [Compound 1310], in experiment [4] (Table 14), the “A2a, value printed as % in Ki column” value was 76%.

Take `O[C@H]1CC[C@H](Nc2nc(-c3ccncc3)nc3[nH]ccc23)CC1` [Compound 1321]: in experiment [2] (Table 14, 10 μM), the “A3, % activity @ 10 μM” value was 54%^8.

For `O[C@H]1CC[C@H](Nc2nc(-c3ccccc3)nc3[nH]c(CN4CCOCC4)cc23)CC1` [Compound 1503], the “Ki-A1 (Adenosine A1 Receptor Selective Compounds)” value in experiment [7] (selectivity versus other three subtypes) was “* (at least 10 times more selective than other three subtypes.)”.

The values are drawn from patent US20030139427A1, “Bicyclic pyrimidinyl derivatives and methods of use thereof” (OSI Pharmaceuticals Inc., priority 2002, published 2003).
